Reference: ChEMBL document CHEMBL3137667, “[Drug-induced liver injury; fourteenth updated edition of the bibliographic database of liver injuries and related drugs]” (Gastroenterol Clin Biol, 2004)

How the values were obtained:
[1] = Highest frequency of moderate liver toxicity observed during clinical trials, expressed as a percentage. [column '% BIOL' in source]; details: human
[2] = Highest frequency of acute liver toxicity observed during clinical trials, expressed as a percentage. [column '% AIGUE' in source]; details: human
[3] = Presence of at least one case with successful reintroduction. [column 'REINT' in source]; details: human
[4] = Proposed mechanism(s) of liver damage. [column 'MEC' in source]; details: human
[5] = human, serum
[6] = human, serum; remark: listed apart in the source
[7] = human
[8] = human; remark: listed apart in the source
[9] = human; remark: listed apart in the source
[10] = human, serum, 4383 h
[11] = human; remark: listed apart in the source
[12] = human; remark: listed apart in the source
[13] = human; remark: listed apart in the source
[14] = human; remark: listed apart in the source
[15] = human; remark: listed apart in the source
[16] = human; remark: listed apart in the source
[17] = Times to onset, minimal and maximal, observed in the indexed observations. [column 'DELAI' in source]; details: human
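Throughout, for Hepatotoxicity (association with vascular disease): count of indexed literature references reporting vascular liver injury in humans, e.g. peliosis hepatitis, hepatic veno-occlusive disease or Budd-Chiari syndrome.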
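Throughout, for Hepatotoxicity (benign tumour): value is a count of indexed literature references citing a benign tumour confirmed by histopathology.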
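Throughout, for Hepatotoxicity (choleostasis): human cholestatic liver injury, shown by histopathology or by peak ALT or AST elevation over alkaline phosphatase ratio below 2, value counts indexed literature reports.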
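Throughout, for Hepatotoxicity (chronic liver disease): chronic liver injury confirmed by histopathology or persistently raised serum aminotransferase activity beyond 6 months, value given as the count of indexed literature references.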
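Throughout, for Hepatotoxicity (cirrhosis): value is a count of indexed literature references reporting cirrhosis confirmed by histopathology.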
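Throughout, for Hepatotoxicity (cytolytic): human cytolytic liver injury, shown by histopathology or by a ratio above 5 of peak ALT or AST elevation to alkaline phosphatase elevation, value counts indexed references.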
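Throughout, for Hepatotoxicity (granulomatous hepatitis): value is a count of indexed literature references reporting granulomatous liver disease confirmed by histopathology.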
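Throughout, for Hepatotoxicity (malignant tumour): malignant tumour confirmed by histopathology, value gives the count of indexed literature references reporting it.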
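Throughout, for Hepatotoxicity (severe hepatitis): human clinical data: severe hepatitis, meaning potentially life-threatening liver failure or clinically observed cases, the value counts how many indexed literature references report it.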
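Throughout, for Hepatotoxicity (steatosis): steatosis confirmed by histopathology, value is the count of indexed references.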

Compound	Hepatotoxicity (moderate) [1] [%]	Hepatotoxicity (acute) [2] [%]	Hepatotoxicity (successful reintroduction) [3]	Hepatotoxicity (moderate) [5]	Hepatotoxicity (acute) [6]	Hepatotoxicity (cytolytic) [7]	Hepatotoxicity (choleostasis) [8]	Hepatotoxicity (severe hepatitis) [9]	Hepatotoxicity (chronic liver disease) [10]	Hepatotoxicity (cirrhosis) [11]	Hepatotoxicity (granulomatous hepatitis) [12]	Hepatotoxicity (association with vascular disease) [13]	Hepatotoxicity (steatosis) [14]	Hepatotoxicity (malignant tumour) [15]	Hepatotoxicity (benign tumour) [16]	Hepatotoxicity (time to onset) [17]	further results
CC[C@@]1(O)C[C@H](O[C@H]2C[C@H](N(C)C)[C@H](O[C@H]3C[C@H](O)[C@H](O[C@H]4CCC(=O)[C@H](C)O4)[C@H](C)O3)[C@H](C)O2)c2c(cc3c(c2O)C(=O)c2c(O)cccc2C3=O)[C@H]1C(=O)OC [ACLARUBICIN]	26.7	0	yes	8	0	0	0	1	0	0	0	0	0	0	0		Hepatotoxicity (mechanism) [4]: Dose-dependant
COC(=O)C1=C(C)NC(C)=C(C(=O)OC)C1c1ccccc1[N+](=O)[O-] [NIFEDIPINE]	12	4	yes	6		5	7	2	0	0	0		3	0	0	2 days - 6 years	Hepatotoxicity (mechanism) [4]: Allergic
CC(=O)S[C@@H]1CC2=CC(=O)CC[C@]2(C)[C@H]2CC[C@@]3(C)[C@@H](CC[C@@]34CCC(=O)O4)[C@H]12 [SPIRONOLACTONE]	0	0	yes	0	3	3	3	0	0	0	0	0	0	0	0	6 weeks - 2 months	
O=c1[nH]c(=O)n(C2CCCO2)cc1F (configuration not stated) [TEGAFUR]	17.5	0	yes	2	3	1	0	3	2	1	0	0	0	0	0	1.5 months - 9 months	
O=c1cc[nH]c(=S)[nH]1 [THIOURACIL]	0	5.9	yes	0	5	1	1	1	0	0	0	0	0	0	0	1 day - 3 weeks	
Clc1ccc2nsnc2c1NC1=NCCN1 [TIZANIDINE]			yes	2					0	0		0	1	0	0	6 days - 3.5 months	Hepatotoxicity (moderate) ([1]; Liver): 0%; Hepatotoxicity (mechanism) ([4]; Liver): Allergic; Hepatotoxicity (cytolytic) ([7]; Liver): 1; Hepatotoxicity (choleostasis) ([8]; Liver): 0; Hepatotoxicity (severe hepatitis) ([9]; Liver): 2; Hepatotoxicity (granulomatous hepatitis) ([12]; Liver): 0
Cc1c(Cl)cccc1Nc1ccccc1C(=O)O [TOLFENAMIC ACID]	0	0	yes	0	2	1	0	0	0	0	0	0	0	0	0	6 months	
COc1cc(C(=O)NS(=O)(=O)c2ccccc2C)ccc1Cc1cn(C)c2ccc(NC(=O)OC3CCCC3)cc12 [ZAFIRLUKAST]	4.1	0.5	yes	4	8	8	0	3	0	0	0	0	0	0	0	2 months - 1 year	
CN(C)C/C=C(/c1ccc(Br)cc1)c1cccnc1 [ZIMELDINE]	20.5	6.6	yes	9	4	3	3	0	0	0	2	0	0	0	0	2 weeks - 2 months	
ENOXAPARIN	36	0	yes	8	0	0	0	0	0	0	0	0	0	0	0	12 hours - 2 weeks	
FILGRASTIM	75	0	yes	7	2	2	1	0	0	0	0	0	0	0	0	3 days - 8 days	
INSULIN HUMAN	0	0	yes	5	1	1	0	0	0	0	0	0	0	0	0	6 days - 1 month	
PEGVISOMANT	0	1.3	yes	0	2	2	0	0	0	0	0	0	0	0	0	4 weeks - 8 weeks	
PENTOSAN POLYSULFATE SODIUM	75	0	yes	5	1	1	0	0	0	0	0	0	0	0	0	1 week - 2 weeks	
